Assay results as given in patent US20160230142A1, “CORNEAL STROMAL KERATOCYTE CULTURE” (SINGAPORE HEALTH SERVIES PTE LTD., priority 2013, published 2016).

Experiments:
Format in all cases: cell-based
[1] = tested on: primary human CSKs; experiment: F-actin stress fiber pattern by phalloidin staining (stress index)
Procedure: Cornea specimens were washed in sterile PBS (0.01 M, Invitrogen, Carlsbad, Calif., US) added with 3% antibiotics-antimycotes (penicillin S, streptomysin sulfate and amphoptericin B, Invitrogen). Central corneal buttons (1 mm from peripheral limbus) were trephined and treated with dispase II (20 mg/ml, Roche, Basal, Switzerland) to remove corneal epithelium and endothelium. The stroma tissue was trimmed into small fragments (˜1 mm^3 in size) and digested with collagenase I (0.1%, Worthington, Lakewood, N.J., US) in keratocyte basal medium (KBM) for 8 to 10 hours at 37° C. After repeat pipetting, the cell suspension was passed through cell strainer (40 μm pore size), followed by centrifugation at 400 g for 5 min at room temperature. […]
The samples were fixed with freshly prepared 2% neutral buffered paraformaldehyde (Sigma), quenched with ice-cold 50 mM ammonium chloride (Sigma) and permeabilized with 0.15% saponin (Sigma). […] Results were visualized under fluorescence microscopy (Carl Zeiss) or confocal laser-scanning microscopy (LSM 510 Meta, Carl Zeiss).
[…] The percentage of stress cells in triplicate experiments was expressed as mean±SD. Results were compared and analyzed by paired Student's t-test and Dunn-Bonferroni correction.

[2] = tested on: Smad2/3; experiment: TGFβ-mediated nuclear localization of Smad2/3 (immunofluorescence); conditions: TGFβ1 10 ng/ml, human CSKs at passage 5
Procedure: The samples were fixed with freshly prepared 2% neutral buffered paraformaldehyde (Sigma), quenched with ice-cold 50 mM ammonium chloride (Sigma) and permeabilized with 0.15% saponin (Sigma). After blocking with 2% bovine serum albumin (Sigma) and 2% normal goat serum (Invitrogen), the cells were incubated with primary antibody recognizing aldehyde dehydrogenase 1A1 (ALDH1A1, Proteintech), lumican (LUM, Bioss), transketolase (Tkt, Cell Signalling), αSMA (Sigma) or Alexa Fluor 543-conjugated phalloidin (Sigma), respectively. The secondary antibodies were either Alexa488 or Rhodamine Red-X-conjugated (Jackson ImmunoRes Lab, West Grove, Pa.). All nuclei were counterstained with DAPI (4′,6-diamidino-2-phenylindole, Santa Cruz) and samples were mounted in FluorShield (Sigma). Results were visualized under fluorescence microscopy (Carl Zeiss) or confocal laser-scanning microscopy (LSM 510 Meta, Carl Zeiss).
To examine if LAE (ASE) was effective in suppressing CSK transition to fibroblasts, TGFβ-mediated nuclear localization of Smad2/3 was studied.

[3] = tested on: human CSKs (at passage 6); experiment: Collagen gel contraction assay; conditions: TGFβ1 (20 ng/ml) added to KBM with 2% FBS, 48 hours
Procedure: Bovine type I collagen gels were made to a final concentration of 2.5 mg/ml as liquid with KBM and supplements. It was mixed with cells at a density of 10^5 cells/ml and 0.5 ml mixture was added to each well of 24-multiwell plate coated with 1% BSA. It was allowed to gelation at 37° C. for 1 hour before addition of appropriate medium. After 24 hours, the gel was released from the side of culture well with a sterile needle to initiate contraction. The collagen gel size change was recorded at 48-hour interval and measured using Image J software (NIH). The percentages of collagen gel size to the size of culture well were compared among different treatments. Experiment was done in quadruplicate and the percentages of gel contraction were represented as median and interquartile range. Intergroup significance was calculated by Mann-Whitney U test.

Compound: C[C@@H](N)[C@H]1CC[C@H](C(=O)Nc2ccncc2)CC1 [Y27632, (1R,4r)-4-((R)-1-aminoethyl)-N-(pyridin-4-yl)cyclohexanecarboxamide]
- stress index (percentage of cells with stress fibre pattern) ([1]; Y27632 (10 μM) added to KBM+0.5% FBS, 5 random fields): 7.6±2.9%

Compound: IGF1: insulin-like growth factor 1 (10 ng/ml, Invitrogen)
- cells with stress F-actin fibre ([1]; IGF1-treated cells with 0.5% FBS): 29.3±7.3%

Compound: TGFβ1: recombinant human TGFβ1
- cells with nuclear Smad2/3 ([2]; 3 days): 43.8%
- cells with nuclear Smad2/3 ([2]; incubated for 3 hours): 22%
- gel contraction (median) [3]: 91.7%
